From PMC12116762, “Topobexin targets the Topoisomerase II ATPase domain for beta isoform-selective inhibition and anthracycline cardioprotection” (Nature Communications, 2025)
“And” between values parts separate entries of the source, which are not always exact repeats. Equal entries are not always repeated.

Experiments:
HL-60 cell line = experiment: Antiproliferative activity and interference with DAU (MTT), HL-60; assay type: cell-based, human; conditions: DAU 1.2 µM alone; Suppl.Fig.8c
Experimental: Antiproliferative effects of studied compounds alone or in combination with DAU were assayed, as described previously, using HL-60 cell line (ATCC® Catalog Number: CCL-240TM, lot 5036502; American Type Culture Collection, Manassas, VA) derived from a patient with acute promyelocytic leukaemia. The cells were cultured in RPMI-1640 medium supplemented with 10% FBS, 50 U/mL penicillin, and 50 μg/mL streptomycin solution at 37 °C in a humidified atmosphere of 5% CO2. For the experiments, cells were seeded on 96-well plates (TPP, Switzerland) at a density of 10,000 cells per well ([…]). […] Proliferation was assessed by the MTT assay. Briefly, 25 µL of 3 mg/mL MTT solution (3(4,5-dimethyl-2-thiazolyl)-2,5-diphenyl-2H-tetrazolium bromide) in PBS was added to each well, and after 2 h of incubation at 37 °C the cells were lysed with lysis buffer (isopropanol, 0.1 M HCl, 5% Triton X-100) for 30 minutes at RT. After the formazan was dissolved, the absorbance of the samples was measured at 570 nm and a reference wavelength at 690 nm (the 690 nm background absorbance was subtracted from the 570 nm values). Data are expressed as mean ± SD from four independent experiments. Normalized values were plotted as a function of inhibitor concentration to determine IC50 values using Prism 9 (GraphPad). Statistical significance was evaluated by ANOVA with the Holm-Sidak post hoc test (P ≤ 0.05, marked as significant difference against control (c) or DAU (d)).

caspase 9 = experiment: Caspase 9 activity in NVCM (Caspase-Glo); assay type: cell-based, rat; conditions: DAU 1.2 μM alone
Experimental: (§1) Caspase activity was assessed on NVCM cells using luciferase-based kits for caspase 3/7, 8 and 9 (Caspase-Glo® 3/7, 8 and 9 assay systems; Promega) according to the manufacturer’s instructions on 384-well plates (Greiner Bio-One). Luminescence signal was measured using Tecan M200 multifunctional plate-reader. All measured groups were corrected for total protein concentration (BCA assay) and were expressed as fold change of the signal over corresponding untreated control group. Each presented data point was obtained from distinct sample. Statistical significance was determined using ratio paired t-test, two-tailed.

γH2AX [1] = experiment: γH2AX levels in NVCM (Western blotting); assay type: cell-based, rat; design: γH2AX level, mean: scale not given here; conditions: DAU 1.2 μM alone
Experimental: TOP2B and γH2AX levels in NVCM were determined as follows. After incubation, 4 × 10^5 rat neonatal cardiomyocytes were lysed with 75 µL of 2% SDS in 0.1 M Tris (pH 7.4) and boiled at 95 °C for 5 min. The protein content of each sample was determined by the BCA method and 10 μg of total protein were loaded onto a polyacrylamide gel (7.5% for TOP2B, 12% for γH2AX, Bio-Rad TGX stain-free gels). After approximately 75 min of electrophoresis (150 V, Bio-Rad Mini-PROTEAN Tetra Cell), the gels were transblotted onto nitrocellulose membranes using a semi-dry method in Transblot Turbo (Bio-Rad, USA). The next day, the membranes were blocked for 1 h in 5% skimmed milk powder in 0.05% TBS-T at room temperature (RT). For TOP2 analysis, membranes were incubated with rabbit anti-TOP2A/B (1:2,000, ab109524, Abcam, UK) in 1% BSA in PBS for 1 h at RT, washed 6 times for 5 min in 0.05% TBS-T and then incubated with HRP-labeled F(ab’)2 goat anti-rabbit IgG (1:10,000, ab6112, Abcam, UK) in 0.05% TBS-T for 1 h RT and washed again (6 × 5 min in 0.05% TBS-T). For γH2AX analysis, membranes were incubated with mouse anti-γH2AX (1:5,000; ab26350, Abcam, UK) in 5% BSA in PBS for 1 h at RT, washed with 0.05% PBS-T for 6 × 5 min, incubated with HRP-conjugated anti-mouse IgG (1:40,000; A9044 Sigma Aldrich, USA) in 5% BSA in PBS for 1 h RT and finally washed with 0.05% PBS-T for 6 times 5 min. Target proteins were visualized using a chemiluminescent detection substrate (Clarity Western ECL Substrate, Bio-Rad, USA) and a Gel Doc EZ with Image Lab software (Bio-Rad, USA). Full, uncropped images of all blots present in the manuscript figures are included in the source data file.
Densitometric quantification was performed using Image Lab software (Bio-Rad). Stain-free technology was used to visualize the total protein on the gel and normalize the total protein amount in each line. Each presented data point was obtained from distinct sample.

caspase 3/7 = experiment: Caspase 3/7 activity in NVCM (Caspase-Glo); assay type: cell-based, rat; conditions: DAU 1.2 μM alone
Experimental: as §1

rabbits = experiment: Chronic anthracycline cardiotoxicity model in rabbits
Experimental: Thirty-eight rabbits were used for this purpose using the following study design. Chronic cardiotoxicity was induced by DAU (3 mg/kg, i.v., once weekly for 10 weeks, n = 11), while the control group received the same volume of saline (1 ml/kg, n = 9) in the same way. […] Animal survival was monitored daily, while body weight change was recorded weekly. The experiment was scheduled to end a week after the last dosing of the compounds studied.
Cardiac damage induced by DAU was quantified by determination of cardiac troponin T in plasma before the 1st, 5th, 8th and 10th doses and at the end of the study using a high sensitivity assay (Elecsys Troponin T high sensitive STAT test, Roche Diagnostics, Switzerland, detection limit of 0.003 μg/L). The area under curve (AUC) of the plasma concentration of cardiac troponin T was determined using GraphPad Prism.
The systolic function of the LV was examined throughout the experiment without invasiveness using echocardiography (Vivid 4, probe 10.5 MHz, GE HeathCare) and invasively at the scheduled end of the experiment using LV catheterization (a Millar catheter 2.3 F, Millar Instruments, USA). In the echocardiography examination, the M-mode was used to determine the dimensions of the LV and the fractional shortening of the LV (LVFS) was calculated as an index of systolic function as described previously[46]. Similarly, from the change in LV pressures determined by catheterization of the LV, dP/dtmax was calculated as an index of systolic function as previously described[47]. Statistical significance was determined using one way ANOVA followed by the Holm–Sidak post hoc test or Kruskal–Wallis ANOVA on ranks followed by Dunn’s post hoc test according to the data distribution.
During necropsy, heart was rapidly excised, washed in cold saline and LV free wall was snap frozen in liquid nitrogen. After homogenization in liquid nitrogen, aliquots (aprox. 50 mg) were stored at -80 °C and used for PCR analysis of molecular markers of cardiotoxicity. Total RNA was isolated from rabbit LV myocardium using TRIzol reagent (Sigma-Aldrich). After reverse transcription using a High-Capacity cDNA Reverse Transcription Kit, qPCR was performed with TaqMan Fast Universal PCR Master Mix on QuantStudio 7 Flex Real-Time PCR System (all from Applied Biosystems, Foster City). […] Mean threshold cycle values were transformed into relative expression using the Pfaffl method. Commercial gene expression assays were obtained from Applied Biosystems and Generi Biotech (Hradec Králové, Czech Republic). The expression data were normalized by Hprt1 expression. Statistical significance was determined using one way ANOVA followed by the Holm–Sidak post hoc test or Kruskal–Wallis ANOVA on ranks followed by Dunn’s post hoc test according to the data distribution.

γH2AX [2] = experiment: γH2AX levels in HL-60 cells (Western blotting); assay type: cell-based, human; conditions: DAU 1.2 µM alone (mean = 100); Suppl.Fig.8d

## COc1cccc2c1C(=O)c1c(O)c3c(c(O)c1C2=O)C[C@@](O)(C(C)=O)C[C@@H]3O[C@H]1C[C@H](N)[C@H](O)[C@H](C)O1 [DAU, daunorubicin, reference compound]
HL-60 cell line
  HL-60 proliferation (MTT), mean of independent replicates: 35.1587
Caspase 9
  Csp9 activity, mean: 2.579 fold change
Caspase 9; independent replicates
  Csp9 activity: 1.742 fold change and 1.782 fold change and 3.523 fold change and 1.858 fold change and 4.0027 fold change and 2.565 fold change
γH2AX [1]
  γH2AX level, mean: 100
γH2AX [1]; independent replicates
  γH2AX level: 113.699 and 89.6209 and 76.0928 and 120.587
Caspase 3/7
  Csp3/7 activity, mean: 3.236 fold change
Caspase 3/7; independent replicates
  Csp3/7 activity: 2.392 fold change and 2.445 fold change and 4.746 fold change and 2.53 fold change and 4.167 fold change and 3.136 fold change
rabbits; DAU 3 mg/kg weekly, 10 weeks
  premature death: one premature death
rabbits; DAU alone, individual animals
  Body weight gain: 111.6 and 102.0 and 134.7 and 116.1 and 99.5 and 98.2 and 106.3 and 117.5 and 112.5 and 97.6 and 92.2
  Brain natriuretic peptide mRNA, LV myocardium: 3.43 and 7.71 and 11.23 and 1.53 and 3.70 and 14.27 and 5.99 and 15.03 and 2.12 and 2.78
  Collagen I alpha 1 mRNA: 1.89 and 3.79 and 5.05 and 1.80 and 2.15 and 7.04 and 4.33 and 8.95 and 1.98 and 2.03
  Fibronectin 1 mRNA: 2.75 and 11.42 and 16.69 and 2.86 and 6.76 and 33.96 and 11.80 and 25.41 and 3.99 and 2.01
  LV FS (LMV): 35.5 and 28.3 and 21.8 and 37.5 and 22.5 and 33.0 and 26.0 and 35.8
  LV dP/dtmax: 4037 and 6946 and 6956 and 5174 and 3773 and 6731 and 5382 and 6442
  Δ LV FS (LMV): -7.5 and -6.8 and -15.3 and -22.3 and -4.5 and -6.0 and -18.5 and -9.0 and -16.5 and -17.5 and -9.2
γH2AX [2]
  γH2AX level, mean of independent replicates: 100
